By pIC50 is commonly meant the negative decadic logarithm of the IC50, by convention in mol/L. A higher pIC50 goes with a small IC50.

This note sets out measurements from the supplement of paper PMC12076712.

± gives the standard deviation of the averaged measurements.

The target of one assay is TLK2 (UniProt Q86UE8). The assay is described as follows: pIC50, competition of probe 3 labelling in live cells. The note with it: cell material: Jurkat cells.
The next assay has as its target RABGGTB (UniProt P53611). Described as above. Particulars: cell material: Jurkat cells.
The target in another assay is T1, UniProt Q13043.
T1 sequence (whole entry): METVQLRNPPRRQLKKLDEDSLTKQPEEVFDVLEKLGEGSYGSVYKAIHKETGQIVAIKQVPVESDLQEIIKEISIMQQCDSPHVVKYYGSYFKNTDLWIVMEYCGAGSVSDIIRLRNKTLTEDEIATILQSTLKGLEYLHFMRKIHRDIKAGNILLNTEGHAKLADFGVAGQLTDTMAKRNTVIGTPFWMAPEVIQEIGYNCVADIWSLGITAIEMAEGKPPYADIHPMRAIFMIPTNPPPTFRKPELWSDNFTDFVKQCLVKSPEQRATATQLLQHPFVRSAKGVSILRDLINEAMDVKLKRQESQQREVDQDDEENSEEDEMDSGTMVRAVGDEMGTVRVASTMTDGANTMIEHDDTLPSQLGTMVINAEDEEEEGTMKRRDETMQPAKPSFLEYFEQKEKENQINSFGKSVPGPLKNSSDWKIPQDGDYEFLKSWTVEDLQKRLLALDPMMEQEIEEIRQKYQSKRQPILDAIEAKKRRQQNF
The description is as above. Particulars: cell material: Jurkat cells.

In a further assay the target is CES3 (UniProt Q6UWW8). The assay is described as above. Particulars: cell material: Jurkat cells.
Chain of CES3 (Q6UWW8 whole entry): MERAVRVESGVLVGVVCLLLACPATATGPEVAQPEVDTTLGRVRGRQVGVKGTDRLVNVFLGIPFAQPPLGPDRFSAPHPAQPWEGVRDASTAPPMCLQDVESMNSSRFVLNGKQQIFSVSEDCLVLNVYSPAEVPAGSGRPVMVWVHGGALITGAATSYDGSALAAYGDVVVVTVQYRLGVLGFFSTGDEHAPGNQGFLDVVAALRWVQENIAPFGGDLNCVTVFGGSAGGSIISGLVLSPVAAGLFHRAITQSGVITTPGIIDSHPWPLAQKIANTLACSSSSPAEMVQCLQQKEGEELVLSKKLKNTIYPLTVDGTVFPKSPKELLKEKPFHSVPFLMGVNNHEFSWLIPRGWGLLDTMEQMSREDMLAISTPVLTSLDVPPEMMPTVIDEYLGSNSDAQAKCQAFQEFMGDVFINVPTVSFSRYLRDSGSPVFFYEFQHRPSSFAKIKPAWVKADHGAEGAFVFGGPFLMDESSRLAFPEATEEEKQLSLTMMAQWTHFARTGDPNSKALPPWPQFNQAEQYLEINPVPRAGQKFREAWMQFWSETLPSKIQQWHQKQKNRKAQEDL
The target of a further assay is UniProt O75582. The assay is described as above. Particulars: cell material: Jurkat cells.
The target in another assay is LYPLA1 (UniProt O75608). Described as above. The note with it: cell material: Jurkat cells.
Chain of LYPLA1 (O75608 whole entry): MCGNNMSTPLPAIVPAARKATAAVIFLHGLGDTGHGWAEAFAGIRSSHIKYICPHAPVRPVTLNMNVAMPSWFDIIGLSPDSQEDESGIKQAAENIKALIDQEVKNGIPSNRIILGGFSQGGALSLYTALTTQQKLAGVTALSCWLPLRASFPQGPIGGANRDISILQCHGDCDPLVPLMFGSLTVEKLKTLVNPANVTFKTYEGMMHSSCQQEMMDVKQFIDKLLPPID
For the next assay, the target named is UniProt Q15418. Described as above. The note with it: cell material: Jurkat cells.
The target of another assay is T2, UniProt Q15831.
T2 sequence (whole entry): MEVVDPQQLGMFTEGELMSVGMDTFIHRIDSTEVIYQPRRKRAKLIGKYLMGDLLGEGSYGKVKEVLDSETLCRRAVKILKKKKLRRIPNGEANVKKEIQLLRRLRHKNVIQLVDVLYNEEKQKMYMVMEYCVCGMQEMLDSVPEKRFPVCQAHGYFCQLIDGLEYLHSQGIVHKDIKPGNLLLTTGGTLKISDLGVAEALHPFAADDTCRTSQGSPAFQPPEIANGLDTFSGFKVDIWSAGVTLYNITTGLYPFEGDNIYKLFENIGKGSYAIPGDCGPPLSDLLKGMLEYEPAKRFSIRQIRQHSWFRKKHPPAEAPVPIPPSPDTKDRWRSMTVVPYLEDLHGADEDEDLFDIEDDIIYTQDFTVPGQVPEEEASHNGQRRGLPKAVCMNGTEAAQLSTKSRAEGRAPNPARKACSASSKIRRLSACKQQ
The assay is described as above. Particulars: cell material: Jurkat cells.

Another assay has as its target TAOK3 (UniProt Q9H2K8). Described as above. The note with it: cell material: Jurkat cells.
The target of another assay is UniProt P19525. The description is as above. The note with it: cell material: Jurkat cells.
Chain of UniProt P19525 (P19525 whole entry): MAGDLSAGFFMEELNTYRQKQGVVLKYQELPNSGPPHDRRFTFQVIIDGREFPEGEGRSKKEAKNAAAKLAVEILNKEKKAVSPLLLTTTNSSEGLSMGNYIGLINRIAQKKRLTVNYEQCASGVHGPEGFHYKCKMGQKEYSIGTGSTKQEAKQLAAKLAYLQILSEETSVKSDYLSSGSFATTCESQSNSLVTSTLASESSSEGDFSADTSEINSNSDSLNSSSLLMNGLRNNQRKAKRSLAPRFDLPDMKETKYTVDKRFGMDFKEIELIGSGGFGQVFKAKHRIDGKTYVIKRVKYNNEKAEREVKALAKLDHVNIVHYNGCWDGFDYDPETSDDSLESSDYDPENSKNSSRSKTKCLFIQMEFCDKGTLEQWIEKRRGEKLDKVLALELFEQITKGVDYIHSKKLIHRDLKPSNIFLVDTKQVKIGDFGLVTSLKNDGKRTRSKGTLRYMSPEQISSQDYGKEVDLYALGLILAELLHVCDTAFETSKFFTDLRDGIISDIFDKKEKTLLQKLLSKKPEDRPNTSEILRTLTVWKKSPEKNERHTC
The next assay has as its target UniProt Q9P286. Kind of assay: pIC50, kinobeads binding competition. The note with it: cell material: Lysate mix. The method in brief: (§1)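 Fold changes relative to vehicle, from biological duplicates, were fitted with logistic dose-response models in the R drc package to give pIC50. These fold changes came from TMT10 LC-MS/MS quantification of digested Kinobeads-bound proteins. Compound was applied at nine concentrations (top 30 μM) either to live Jurkat cells in 1:4 steps for 60 min at 37 °C before lysis, or to Jurkat lysate or a 1:1:1:1 HEK293/K-562/HepG2/placenta lysate mix in 1:5 steps for 60 min at 4 °C.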

Another assay has as its target UniProt Q05513. The assay is described as follows: pIC50, kinobeads binding competition. Particulars: cell material: Lysate mix. The method in brief: as §1
The next assay addresses UniProt P06493. Kind of assay: pIC50, competition of probe 3 labelling in live cells. Particulars: cell material: Jurkat cells.
Another assay deals with T3, MASTL (UniProt Q96GX5).
T3 sequence (whole entry): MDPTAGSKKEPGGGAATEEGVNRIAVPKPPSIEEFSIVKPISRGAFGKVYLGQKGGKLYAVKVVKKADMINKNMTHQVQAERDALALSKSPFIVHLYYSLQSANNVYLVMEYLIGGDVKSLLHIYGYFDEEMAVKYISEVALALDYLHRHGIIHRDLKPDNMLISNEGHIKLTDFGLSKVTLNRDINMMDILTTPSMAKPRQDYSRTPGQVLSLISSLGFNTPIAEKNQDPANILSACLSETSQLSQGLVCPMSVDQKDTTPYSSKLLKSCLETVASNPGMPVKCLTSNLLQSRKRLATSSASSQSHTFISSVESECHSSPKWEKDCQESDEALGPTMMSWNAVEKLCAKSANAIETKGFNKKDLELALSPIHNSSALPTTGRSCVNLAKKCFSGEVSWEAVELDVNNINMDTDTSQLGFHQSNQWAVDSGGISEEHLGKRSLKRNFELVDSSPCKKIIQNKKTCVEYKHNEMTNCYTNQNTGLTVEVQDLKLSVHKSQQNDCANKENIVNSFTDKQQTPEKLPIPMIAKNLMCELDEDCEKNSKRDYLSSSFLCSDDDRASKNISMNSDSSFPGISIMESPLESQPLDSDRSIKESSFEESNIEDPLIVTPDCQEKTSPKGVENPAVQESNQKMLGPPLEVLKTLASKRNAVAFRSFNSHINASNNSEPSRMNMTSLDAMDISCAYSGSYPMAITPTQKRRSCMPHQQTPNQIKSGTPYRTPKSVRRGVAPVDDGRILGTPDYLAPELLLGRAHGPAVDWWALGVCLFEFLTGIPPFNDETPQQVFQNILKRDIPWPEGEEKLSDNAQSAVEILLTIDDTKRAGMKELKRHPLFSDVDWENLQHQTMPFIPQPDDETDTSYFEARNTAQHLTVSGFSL
Described as above. The note with it: cell material: Jurkat cells.

Another assay concerns the target UniProt P45984. The description is as above. Particulars: cell material: Jurkat cells.
A further assay has as its target MTOR (UniProt P42345). The assay is described as follows: pIC50, kinobeads binding competition. The note with it: cell material: Jurkat cells. The method in brief:
as §1

For another assay, the target named is RIPK1 (UniProt Q13546). Kind of assay: pIC50, kinobeads binding competition. The note with it: cell material: Jurkat cells. The method in brief: as §1
A further assay deals with PASK (UniProt Q96RG2). Kind of assay: pIC50, kinobeads binding competition. Particulars: cell material: Jurkat cells. The method in brief:
as §1

Another assay concerns the target PAK6 (UniProt Q9NQU5). The assay is described as follows: pIC50, kinobeads binding competition. The note with it: cell material: Jurkat lysate. The method in brief:
as §1

Chain of RABGGTB (P53611 whole entry): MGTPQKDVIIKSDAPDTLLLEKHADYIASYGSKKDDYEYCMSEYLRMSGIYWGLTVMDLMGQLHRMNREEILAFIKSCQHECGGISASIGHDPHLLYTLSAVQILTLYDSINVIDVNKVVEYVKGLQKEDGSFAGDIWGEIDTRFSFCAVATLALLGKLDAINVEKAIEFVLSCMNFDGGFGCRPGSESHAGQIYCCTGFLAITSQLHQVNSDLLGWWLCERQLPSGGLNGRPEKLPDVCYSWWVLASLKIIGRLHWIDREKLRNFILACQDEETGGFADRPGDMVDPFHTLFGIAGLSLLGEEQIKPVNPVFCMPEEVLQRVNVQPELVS
Chain of TLK2 (Q86UE8 whole entry, looked up): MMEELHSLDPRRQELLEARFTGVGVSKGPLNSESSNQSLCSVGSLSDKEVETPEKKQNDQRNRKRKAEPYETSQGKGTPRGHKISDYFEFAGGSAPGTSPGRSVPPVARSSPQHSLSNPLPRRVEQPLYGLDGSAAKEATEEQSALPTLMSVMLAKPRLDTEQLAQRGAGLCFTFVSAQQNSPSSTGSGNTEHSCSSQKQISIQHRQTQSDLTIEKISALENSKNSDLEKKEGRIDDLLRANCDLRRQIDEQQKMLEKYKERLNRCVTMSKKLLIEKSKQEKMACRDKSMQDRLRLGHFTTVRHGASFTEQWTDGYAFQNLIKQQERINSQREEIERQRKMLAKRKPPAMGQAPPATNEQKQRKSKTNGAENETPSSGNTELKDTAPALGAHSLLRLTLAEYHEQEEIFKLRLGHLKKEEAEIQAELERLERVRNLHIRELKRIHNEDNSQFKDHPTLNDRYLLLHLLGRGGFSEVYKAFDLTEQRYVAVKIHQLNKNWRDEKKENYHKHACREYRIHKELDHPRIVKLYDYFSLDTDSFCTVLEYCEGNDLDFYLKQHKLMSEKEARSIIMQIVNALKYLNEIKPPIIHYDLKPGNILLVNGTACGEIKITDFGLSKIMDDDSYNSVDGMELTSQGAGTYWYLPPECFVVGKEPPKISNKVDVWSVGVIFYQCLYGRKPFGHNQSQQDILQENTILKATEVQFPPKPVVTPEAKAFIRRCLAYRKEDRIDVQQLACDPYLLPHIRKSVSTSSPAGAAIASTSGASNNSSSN
Chain of PASK (Q96RG2 whole entry): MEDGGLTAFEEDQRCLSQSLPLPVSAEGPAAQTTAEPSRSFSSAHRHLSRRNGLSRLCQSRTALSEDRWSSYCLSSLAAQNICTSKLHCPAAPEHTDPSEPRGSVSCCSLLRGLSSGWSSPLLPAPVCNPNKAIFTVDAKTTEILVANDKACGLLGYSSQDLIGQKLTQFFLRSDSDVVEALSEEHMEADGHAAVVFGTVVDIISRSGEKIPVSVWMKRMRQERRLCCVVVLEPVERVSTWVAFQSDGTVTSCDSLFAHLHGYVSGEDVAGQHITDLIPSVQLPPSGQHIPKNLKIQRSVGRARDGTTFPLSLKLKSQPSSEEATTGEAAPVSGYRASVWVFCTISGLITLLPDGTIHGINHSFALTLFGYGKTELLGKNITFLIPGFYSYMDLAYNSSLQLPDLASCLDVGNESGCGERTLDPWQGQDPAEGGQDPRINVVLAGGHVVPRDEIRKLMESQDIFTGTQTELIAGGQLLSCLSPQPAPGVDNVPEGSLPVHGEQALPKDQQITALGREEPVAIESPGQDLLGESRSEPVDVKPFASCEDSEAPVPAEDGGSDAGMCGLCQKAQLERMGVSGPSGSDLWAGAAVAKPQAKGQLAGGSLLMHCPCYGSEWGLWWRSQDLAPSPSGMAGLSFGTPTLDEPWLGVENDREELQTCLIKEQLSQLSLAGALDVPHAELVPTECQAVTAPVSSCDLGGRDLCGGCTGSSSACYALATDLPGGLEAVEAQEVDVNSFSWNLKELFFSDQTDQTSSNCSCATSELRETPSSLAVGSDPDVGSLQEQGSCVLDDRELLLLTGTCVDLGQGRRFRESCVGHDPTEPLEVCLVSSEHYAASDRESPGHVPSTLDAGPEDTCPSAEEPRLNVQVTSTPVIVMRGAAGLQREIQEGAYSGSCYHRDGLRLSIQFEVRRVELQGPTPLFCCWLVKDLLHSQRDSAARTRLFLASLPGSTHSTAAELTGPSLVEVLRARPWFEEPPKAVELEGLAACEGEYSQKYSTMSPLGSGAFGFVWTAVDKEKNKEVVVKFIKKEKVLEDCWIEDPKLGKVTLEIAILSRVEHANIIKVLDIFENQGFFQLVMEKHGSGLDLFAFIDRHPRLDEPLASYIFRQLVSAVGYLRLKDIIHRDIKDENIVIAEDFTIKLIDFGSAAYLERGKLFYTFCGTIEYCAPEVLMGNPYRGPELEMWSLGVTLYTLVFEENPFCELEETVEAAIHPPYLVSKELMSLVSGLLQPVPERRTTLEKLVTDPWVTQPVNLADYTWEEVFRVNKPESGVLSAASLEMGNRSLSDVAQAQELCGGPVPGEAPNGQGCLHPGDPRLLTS
Chain of PAK6 (Q9NQU5 whole entry, looked up): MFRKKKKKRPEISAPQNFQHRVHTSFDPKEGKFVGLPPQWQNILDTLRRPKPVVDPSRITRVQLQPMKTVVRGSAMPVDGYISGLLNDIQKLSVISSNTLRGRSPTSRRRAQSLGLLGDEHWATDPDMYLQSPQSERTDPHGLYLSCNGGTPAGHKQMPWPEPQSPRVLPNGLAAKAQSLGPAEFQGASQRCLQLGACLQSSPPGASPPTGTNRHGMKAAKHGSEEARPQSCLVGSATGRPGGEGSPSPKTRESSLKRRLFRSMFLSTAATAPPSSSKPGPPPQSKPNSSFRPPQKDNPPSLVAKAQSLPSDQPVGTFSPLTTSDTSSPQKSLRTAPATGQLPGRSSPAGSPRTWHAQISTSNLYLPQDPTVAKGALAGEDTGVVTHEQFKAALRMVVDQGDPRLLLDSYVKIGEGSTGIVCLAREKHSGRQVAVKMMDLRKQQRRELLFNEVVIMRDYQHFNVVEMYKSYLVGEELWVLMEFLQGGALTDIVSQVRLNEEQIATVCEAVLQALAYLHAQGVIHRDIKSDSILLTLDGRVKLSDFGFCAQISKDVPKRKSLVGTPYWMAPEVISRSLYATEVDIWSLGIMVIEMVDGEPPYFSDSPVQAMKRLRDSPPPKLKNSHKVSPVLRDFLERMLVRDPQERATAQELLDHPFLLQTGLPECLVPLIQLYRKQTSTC
Chain of UniProt P06493 (P06493 whole entry, looked up): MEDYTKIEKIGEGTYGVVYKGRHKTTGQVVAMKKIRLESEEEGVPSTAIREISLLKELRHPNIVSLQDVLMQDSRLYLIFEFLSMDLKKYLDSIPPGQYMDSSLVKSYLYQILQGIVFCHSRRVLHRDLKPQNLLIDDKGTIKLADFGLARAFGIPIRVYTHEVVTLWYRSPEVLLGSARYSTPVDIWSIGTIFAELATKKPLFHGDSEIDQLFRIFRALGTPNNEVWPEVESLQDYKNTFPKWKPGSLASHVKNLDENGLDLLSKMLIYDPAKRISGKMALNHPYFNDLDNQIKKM

Turning to `CCc1cnn2c(NCc3ccc[n+]([O-])c3)cc(N3CCCC[C@H]3CCO)nc12` [dinaciclib], the pIC50 on TLK2, on RABGGTB, at UniProt Q13043, at CES3, at UniProt O75582 and at LYPLA1 was under 4.52 throughout. Besides, the pIC50 was under 4.52 on UniProt Q15418, 5.24 ± 0.12 on UniProt Q15831, under 4.52 on TAOK3 and under 4.52 on UniProt P19525.
Turning to `Cc1cc(Nc2cc(C(=O)NCCNC(=O)OC3CC/C=C/CCC3)nc(N3CCN(Cc4ccc(S(=O)(=O)F)cc4)CC3)n2)n[nH]1` (centres undefined), the pIC50 at UniProt Q9P286 was under 4.52.
The molecule `CCNC(=O)c1cc(Nc2cc(C)[nH]n2)nc(N2CCN(Cc3ccc(S(=O)(=O)F)cc3)CC2)n1` showed a pIC50 on UniProt Q05513 of under 4.52.
For the molecule `CC#CC(=O)Nc1ccc2ncnc(Nc3cccc(Br)c3)c2c1` [EKI-785], the pIC50 at UniProt P06493 is under 4.52; at MASTL, under 4.52; on UniProt P45984, 4.6.
On to `C#CCNC(=O)c1cc(Nc2cc(C3CC3)[nH]n2)nc(N2CCN(Cc3ccc(S(=O)(=O)F)cc3)CC2)n1`, for which the negative logarithm of the IC50 (pIC50) was under 4.52 on MTOR, 5.32 on RIPK1, 4.7 on PASK and 5.49 at PAK6.
